Results on 13 molecules are retold here after ChEMBL document CHEMBL4725335, “Deciphering the robustness of pyrazolo-pyridine carboxylate core structure-based compounds for inhibiting α-synuclein in transgenic C. elegans model of Synucleinopathy” (Bioorg Med Chem, 2020).

Experiment [1] concerns the target Alpha-synuclein (Homo sapiens) (UniProt P37840). The experiment in a line: Inhibition of human alpha-synuclein aggregation expressed in transgenic Caenorhabditis elegans NL5901 assessed as decrease in alpha-synuclein expression at 1% after 48 hrs by fluorescence microscopy analysis.
Experiment [2] has the same target. The experiment in a line: Inhibition of human alpha-synuclein aggregation expressed in transgenic Caenorhabditis elegans NL5901 by measuring fluorescence intensity at 1% incubated for 48 hrs by fluorescence microscopy analysis relative to control.

Activity calls are given as the source filed them. The rule behind the calls is not given here.

On to `CCOC(=O)c1cnc2c(cnn2-c2ccccc2)c1N1CCCCC1`, for which, in experiment [1], the inhibition (usually the percentage by which the read-out fell short of the control) was “Active”. In experiment [2], this molecule displayed a fold change (FC) of 1.5 and an inhibition of 47.7%.

Take `CCOC(=O)c1cnc2c(cnn2-c2ccccc2)c1N1CCOCC1`: the inhibition entry in experiment [1] was “Active”. Moreover, the inhibition in experiment [2] was 30.2%.

Consider `CCOC(=O)c1cnc2c(cnn2-c2ccccc2)c1N1CCN(c2ncccc2C#N)CC1`, for which, in experiment [1], the inhibition result is “Active”. This molecule also displayed an inhibition in experiment [2] of 33.1%.

With `CCOC(=O)c1cnc2c(cnn2-c2ccccc2)c1Oc1cccc2cccnc12`, the inhibition result in experiment [1] was “Active”. This molecule displayed an inhibition in experiment [2] of 24.4%.

`CCOC(=O)c1cnc2c(cnn2-c2ccccc2)c1N1CCN(c2cc(=O)[nH]c3ccccc23)CC1`: the inhibition result in experiment [1] is “Active”. In addition, the inhibition in experiment [2] stood at 14.7%.

Take `CCOC(=O)c1cnc2c(cnn2-c2ccccc2)c1N1CCN(c2cc(C)nc3ncnn23)CC1`: the inhibition result in experiment [1] was “Active”. In experiment [2], the inhibition was 31.9%.

Consider `CCOC(=O)c1cnc2c(cnn2-c2ccccc2F)c1N1CCN(c2ncccc2C#N)CC1`, for which the inhibition result in experiment [1] is “Active”. The inhibition in experiment [2] amounted to 26.1%.

In the case of `CCOC(=O)c1cnc2c(cnn2-c2ccccc2)c1N1CCN(C)CC1`, the inhibition result in experiment [1] was “Active”. Further, in experiment [2], the fold change (FC) worked out at 2.4 and the inhibition is 53%.

For the molecule `CCOC(=O)c1cnc2c(cnn2-c2cccc(C(F)(F)F)c2)c1N1CCN(c2ncccc2C#N)CC1`, the inhibition result in experiment [1] is “Active”. Besides, the inhibition in experiment [2] is 27.3%.

Turning to `CCOC(=O)c1cnc2c(cnn2-c2ccccc2)c1N1CCN(S(=O)(=O)c2ccc(NC(C)=O)cc2)CC1`, in experiment [1], the inhibition entry was “Active”. The inhibition in experiment [2] stood at 17.7%.

Turning to `CCOC(=O)c1cnc2c(cnn2-c2ccc(F)c(F)c2)c1N1CCN(c2ncccc2C#N)CC1`, the inhibition entry in experiment [1] was “Active”. Moreover, in experiment [2], the inhibition amounted to 13.5%.

In the case of `CCOC(=O)c1cnc2c(cnn2-c2ccccc2)c1N1CCN(c2cc(C(F)(F)F)nc3ncnn23)CC1`, in experiment [1], the inhibition result is “Active”. Further, in experiment [2], the inhibition stood at 14.1%.

For the molecule `CCOC(=O)c1cnc2c(cnn2-c2ccccc2)c1N1CCN(c2ccnc3cc(Cl)ccc23)CC1`, the inhibition result in experiment [1] was “Active”. In experiment [2], this molecule had a fold change (FC) of 1.7 and an inhibition of 39.2%.
